Source: the supplement of paper PMC10307832

Key:
Experiment in all cases: relative viability (nuclei count vs DMSO), 5 days (fraction); higher = more cells survive
[1] = test system: LK-2
Outline: (§1)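 Lung cancer cell lines in 1536-well plates got either a single drug or a fixed anchor-drug dose together with five library-drug doses (not always all listed) in √10 steps, by pin tool, on the day after seeding. Nuclei were counted after 5 days, and relative viability is the treated-to-vehicle ratio of nuclei counts. Values are medians of duplicate plates.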

[2] = test system: NCI-H2009
Outline: as §1

[3] = test system: LC-2-ad
Outline: as §1

[4] = test system: EMC-BAC-2
Outline: as §1

[5] = test system: NCI-H2347
Outline: as §1

[6] = test system: SW 1573
Outline: as §1

[7] = test system: NCI-H838
Outline: as §1

[8] = test system: HCC-366
Outline: as §1

[9] = test system: PC-14
Outline: as §1

[10] = test system: NCI-H2085
Outline: as §1

[11] = test system: NCI-H1734
Outline: as §1

[12] = test system: HOP-62
Outline: as §1

[13] = test system: NCI-H1993
Outline: as §1

[14] = test system: NCI-H2405
Outline: as §1

[15] = test system: RERF-LC-KJ
Outline: as §1

[16] = test system: CAL-12T
Outline: as §1

[17] = test system: NCI-H2228
Outline: as §1

[18] = test system: ChaGo-K-1
Outline: as §1

[19] = test system: NCI-H3122
Outline: as §1

[20] = test system: SK-MES-1
Outline: as §1

[21] = test system: NCI-H1355
Outline: as §1

[22] = test system: HCC-78
Outline: as §1

## Cc1cnc(-c2cnc(NCCNc3ccc(C#N)cn3)nc2-c2ccc(Cl)cc2Cl)[nH]1 + CC(=O)c1c(C)c2cnc(Nc3ccc(N4CCNCC4)cn3)nc2n(C2CCCC2)c1=O [Palbociclib] (partner 0.5 µM)
[1]; first compound 0.08 µM
  relative viability: 0.754
[1]; first compound 0.253 µM
  relative viability: 0.645
[1]; first compound 2.53 µM
  relative viability: 0.583
[2]; first compound 0.08 µM
  relative viability: 0.256
[2]; first compound 0.253 µM
  relative viability: 0.208
[2]; first compound 0.8 µM
  relative viability: 0.29
[2]; first compound 2.53 µM
  relative viability: 0.225
[3]; first compound 0.08 µM
  relative viability: 0.473
[3]; first compound 0.8 µM
  relative viability: 0.485
[3]; first compound 2.53 µM
  relative viability: 0.436
[4]; first compound 0.08 µM
  relative viability: 0.544
[4]; first compound 0.253 µM
  relative viability: 0.523
[4]; first compound 0.8 µM
  relative viability: 0.543
[4]; first compound 2.53 µM
  relative viability: 0.512
[5]; first compound 0.08 µM
  relative viability: 0.411
[5]; first compound 0.253 µM
  relative viability: 0.406
[5]; first compound 0.8 µM
  relative viability: 0.438
[5]; first compound 2.53 µM
  relative viability: 0.493
[6]; first compound 0.08 µM
  relative viability: 0.387
[6]; first compound 0.253 µM
  relative viability: 0.336
[6]; first compound 0.8 µM
  relative viability: 0.368
[6]; first compound 2.53 µM
  relative viability: 0.146
[7]; first compound 0.08 µM
  relative viability: 0.259
[7]; first compound 0.253 µM
  relative viability: 0.256
[7]; first compound 0.8 µM
  relative viability: 0.253
[7]; first compound 2.53 µM
  relative viability: 0.389
[8]; first compound 0.08 µM
  relative viability: 0.404
[8]; first compound 0.253 µM
  relative viability: 0.331
[8]; first compound 0.8 µM
  relative viability: 0.391
[8]; first compound 2.53 µM
  relative viability: 0.312
[9]; first compound 0.08 µM
  relative viability: 0.572
[9]; first compound 0.253 µM
  relative viability: 0.503
[9]; first compound 0.8 µM
  relative viability: 0.614
[9]; first compound 2.53 µM
  relative viability: 0.323
[10]; first compound 0.08 µM
  relative viability: 0.469
[10]; first compound 0.253 µM
  relative viability: 0.509
[10]; first compound 0.8 µM
  relative viability: 0.504
[10]; first compound 2.53 µM
  relative viability: 0.561
[11]; first compound 0.08 µM
  relative viability: 0.403
[11]; first compound 0.253 µM
  relative viability: 0.342
[11]; first compound 0.8 µM
  relative viability: 0.391
[11]; first compound 2.53 µM
  relative viability: 0.189
[12]; first compound 0.08 µM
  relative viability: 0.531
[12]; first compound 0.253 µM
  relative viability: 0.426
[12]; first compound 0.8 µM
  relative viability: 0.446
[12]; first compound 2.53 µM
  relative viability: 0.45
[13]; first compound 0.08 µM
  relative viability: 0.718
[13]; first compound 0.253 µM
  relative viability: 0.566
[13]; first compound 0.8 µM
  relative viability: 0.621
[13]; first compound 2.53 µM
  relative viability: 0.679
[14]; first compound 0.08 µM
  relative viability: 0.571
[14]; first compound 0.253 µM
  relative viability: 0.452
[14]; first compound 0.8 µM
  relative viability: 0.57
[14]; first compound 2.53 µM
  relative viability: 0.495
[15]; first compound 0.08 µM
  relative viability: 1.18
[15]; first compound 0.253 µM
  relative viability: 0.905
[15]; first compound 0.8 µM
  relative viability: 1.01
[15]; first compound 2.53 µM
  relative viability: 0.956
[16]; first compound 0.08 µM
  relative viability: 0.43
[16]; first compound 0.253 µM
  relative viability: 0.413
[16]; first compound 0.8 µM
  relative viability: 0.37
[16]; first compound 2.53 µM
  relative viability: 0.286
[17]; first compound 0.08 µM
  relative viability: 0.83
[17]; first compound 0.253 µM
  relative viability: 0.716
[17]; first compound 0.8 µM
  relative viability: 0.734
[17]; first compound 2.53 µM
  relative viability: 0.648
[18]; first compound 0.08 µM
  relative viability: 0.929
[18]; first compound 0.253 µM
  relative viability: 0.807
[18]; first compound 0.8 µM
  relative viability: 0.903
[18]; first compound 2.53 µM
  relative viability: 0.833
[19]; first compound 0.08 µM
  relative viability: 0.178
[19]; first compound 0.8 µM
  relative viability: 0.181
[19]; first compound 2.53 µM
  relative viability: 0.188
[20]; first compound 0.08 µM
  relative viability: 0.363
[20]; first compound 0.253 µM
  relative viability: 0.332
[20]; first compound 0.8 µM
  relative viability: 0.379
[20]; first compound 2.53 µM
  relative viability: 0.394
[21]; first compound 0.08 µM
  relative viability: 0.427
[21]; first compound 0.253 µM
  relative viability: 0.383
[21]; first compound 0.8 µM
  relative viability: 0.407
[21]; first compound 2.53 µM
  relative viability: 0.383
[22]; first compound 0.08 µM
  relative viability: 0.463
[22]; first compound 0.253 µM
  relative viability: 0.441
[22]; first compound 0.8 µM
  relative viability: 0.466
[22]; first compound 2.53 µM
  relative viability: 0.467
